Measurements taken from patent publication US8440666B2, “Pyridazinone compounds and P2X7 receptor inhibitors” (Nissan Chemical Industries, Ltd., priority 2007, dated 2013).

These compounds were tested against T1, Human P2X7 (hP2X7) receptor (Homo sapiens, UniProt Q99572) (assay: Dye assay: BzATP-induced Yo-Pro-1 uptake in HEK293 cells stably expressing hP2X7). Settings: BzATP 0.1 mM, Yo-Pro-1 2 μM, 30 min pre-treatment, 90 min incubation.
T1 construct: myc-His (from the pcDNA3.1/myc-HisA vector); expressed in transfected cells
T1 sequence (Q99572 1-595): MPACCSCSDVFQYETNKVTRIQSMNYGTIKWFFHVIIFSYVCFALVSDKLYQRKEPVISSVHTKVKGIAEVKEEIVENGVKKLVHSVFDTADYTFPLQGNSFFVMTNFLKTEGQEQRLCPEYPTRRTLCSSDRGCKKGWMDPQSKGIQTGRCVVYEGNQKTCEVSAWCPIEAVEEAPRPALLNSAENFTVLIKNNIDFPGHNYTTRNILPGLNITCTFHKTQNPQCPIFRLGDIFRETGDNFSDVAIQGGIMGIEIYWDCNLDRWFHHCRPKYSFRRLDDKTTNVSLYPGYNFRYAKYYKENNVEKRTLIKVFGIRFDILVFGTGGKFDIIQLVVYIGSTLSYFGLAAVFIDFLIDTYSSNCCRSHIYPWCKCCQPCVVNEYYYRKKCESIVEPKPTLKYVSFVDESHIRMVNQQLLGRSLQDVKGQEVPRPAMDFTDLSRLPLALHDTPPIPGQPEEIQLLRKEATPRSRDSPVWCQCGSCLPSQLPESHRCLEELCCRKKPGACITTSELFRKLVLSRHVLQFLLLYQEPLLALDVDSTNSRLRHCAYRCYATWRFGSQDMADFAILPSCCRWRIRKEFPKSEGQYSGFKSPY
Type: cell-based
Text: Human P2X7 (hP2×7) was cloned from a normal human brain total RNA library by reverse transcription (using SuperScript II (Invitrogen)) and PCR (using KOD-plus-(TOYOBO)). PCR primers were designed according to hP2X7 sequence registered in GENBANK with a putative amino acid sequence consisting of 595 amino acid residues. The PCR fragments were inserted into pcDNA3.1/myc-HisA vector (Invitrogen) and sequenced for confirmation.
HEK293 cells were transfected with hP2×7/pcDNA3.1/myc-HisA by lipofection, and 1 day later, the cells were treated with 1 mg/mL G418, and resistant cells were selected by appropriately dilution. The resistant cells were cloned by reseeding at a low density.
P2X7 receptor antagonists were screened by a dye uptake assay using HEK293 cells stably expressing hP2×7. Cells were plated on a type I collagen-coated black/clear bottom 96-well plate at 20000 cells/well and a day later, treated with varying concentrations of various test compounds for 30 minutes, then treated with a dye (Yo-Pro-1) (final concentration 2 μM) and BzATP (final concentration 0.1 mM) and incubated for 90 minutes. Then, the fluorescence (indicating the BzATP-induced Yo-Pro-1 uptake mediated by the P2X7 receptor) was measured with a microplate reader (excitation wavelength: 485 nm, emission wavelength: 535 nm). The % inhibition rates were calculated and plotted against the logarithms of the concentrations to determine IC50.

IC50 | Structure (SMILES)
42 nM | C[C@@H]1[C@H]2C[C@@H](C[C@H]1Nc1cnn(CC(=O)NCC3CCNC=C3S(C)(=O)=O)c(=O)c1Cl)C2(C)C (stereo partly shown) [compound 447]
1.7 nM | COc1nnc(Cl)cc1C(C)NC(=O)Cn1ncc(N[C@@H]2C[C@@H]3C[C@H]([C@H]2C)C3(C)C)c(Cl)c1=O (stereo partly shown) [compound 438]

Same assay, conditions: BzATP (0.1 mM)-induced Yo-Pro-1 uptake, compounds 30 min pre-treatment, 90 min incubation

IC50 | Structure (SMILES)
220 nM | C[C@@H]1[C@H]2C[C@@H](C[C@H]1Nc1cnn(Cc3ccncc3)c(=O)c1Br)C2(C)C [Synthetic Example 394, 4-Bromo-2-(pyridin-4-ylmethyl)-5-{[(1R,2R,3R,5S)-2,6,6-trimethylbicyclo[3.1.1]hept-3-yl]amino}pyridazin-3(2H)-one]
2.8 nM | CC(NC(=O)Cn1ncc(N[C@@H]2C[C@@H]3C[C@@H](C3(C)C)[C@]2(C)O)c(Cl)c1=O)c1ccncc1Cl (stereo partly shown) [compound 363]
120 nM | CCC(NC(=O)Cn1ncc(N[C@@H]2C[C@@H]3C[C@H]([C@H]2C)C3(C)C)c(Cl)c1=O)C(N)=O (stereo partly drawn) [Synthetic Example 402, 2-({[5-Chloro-6-oxo-4-{[(1R,2R,3R,5S)-2,6,6-trimethylbicyclo[3.1.1]hept-3-yl]amino}pyridazin-1(6H)-yl]acetyl}amino)butanamide]
38 nM | C[C@@H]1[C@H]2C[C@@H](C[C@H]1Nc1cnn(CC(=O)NC3CC3)c(=O)c1Br)C2(C)C [compound 19]
30 nM | CC(NC(=O)Cn1ncc(N[C@@H]2C[C@@H]3C[C@H]([C@H]2C)C3(C)C)c(Br)c1=O)c1ccc(F)cc1 (stereo partly shown) [compound 178]
37 nM | C[C@@H]1[C@H]2C[C@@H](C[C@H]1Nc1cnn(CC(=O)NCC3CCOCC3)c(=O)c1Cl)C2(C)C [compound 232]
77 nM | CCN(CC)c1ccc(C(Cn2ncc(N[C@@H]3C[C@@H]4C[C@H]([C@H]3C)C4(C)C)c(Br)c2=O)=NOC)cc1 [Synthetic Example 159, 4-Bromo-2-{2-[4-(diethylamino)phenyl]-2-(methoxyimino)ethyl}-5-[(1R,2R,3R,5S)-2,6,6-trimethylbicyclo[3.1.1]hept-3-ylamino]pyridazin-3(2H)-one]
230 nM | C[C@@H]1[C@H]2C[C@@H](C[C@H]1Nc1cnn(CC(=O)NCc3ccc(C(F)(F)F)c(F)c3)c(=O)c1Br)C2(C)C [compound 183]
46 nM | C[C@@H]1[C@H]2C[C@@H](C[C@H]1Nc1cnn(CC(=O)Nc3cccc([N+](=O)[O-])c3)c(=O)c1Br)C2(C)C [compound 79]
70 nM | CSc1c(N[C@@H]2C[C@@H]3C[C@H]([C@H]2C)C3(C)C)cnn(CC(=O)NCc2ccncc2)c1=O [Synthetic Example 146]
45 nM | CCC(NC(=O)Cn1ncc(NC23CC4CC(CC2C4)C3)c(Cl)c1=O)c1ccncn1 (stereo not shown) [compound 351]
2.8 nM | CN(C)c1cnccc1CNC(=O)Cn1ncc(NC2C3CCCC2CCC3)c(Cl)c1=O (stereo not shown) [compound 373]
44 nM | C[C@@H]1[C@H]2C[C@@H](C[C@H]1Nc1cnn(CC(=O)NCc3cscn3)c(=O)c1Br)C2(C)C [compound 106]
27 nM | C[C@@H]1[C@H]2C[C@@H](C[C@H]1Nc1cnn(CC(=O)NC(CC(N)=O)c3ccncc3)c(=O)c1Br)C2(C)C (stereo partly drawn) [Synthetic Example 428, 3-({[5-Bromo-6-oxo-4-{[(1R,2R,3R,5S)-2,6,6-trimethylbicyclo[3.1.1]hept-3-yl]amino}pyridazin-1(6H)-yl]acetyl}amino)-3-(pyridin-4-yl)propanamide]
26 nM | CC(NC(=O)Cn1ncc(NC23CC4CC(CC2C4)C3)c(Br)c1=O)c1ccnnc1 (stereo not shown) [compound 348]
310 nM | C[C@@H]1[C@H]2C[C@@H](C[C@H]1Nc1cnn(CC(=O)N/C(=N/O)c3ccncc3)c(=O)c1Br)C2(C)C [compound 172]
3.5 nM | C[C@@H]1[C@H]2C[C@@H](C[C@H]1Nc1cnn(CC(=O)NCc3ccnnc3)c(=O)c1Cl)C2(C)C [compound 293]
63 nM | C[C@@H]1[C@H]2C[C@@H](C[C@H]1NC(=O)Cn1ncc(N[C@@H]3C[C@@H]4C[C@H]([C@H]3C)C4(C)C)c(Br)c1=O)C2(C)C [compound 32]
84 nM | C[C@@H]1[C@H]2C[C@@H](C[C@H]1Nc1cnn(CC(=O)NCC3CCCCC3)c(=O)c1Br)C2(C)C [compound 208]
22 nM | Cc1c(N[C@@H]2C[C@@H]3C[C@H]([C@H]2C)C3(C)C)cnn(CC(=O)NCc2ccncc2)c1=O [Synthetic Example 154, 2-{5-Methyl-6-oxo-4-[(1R,2R,3R,5S)-2,6,6-trimethylbicyclo[3.1.1]hept-3-ylamino]pyridazin-1(6H)-yl}-N-(pyridin-4-ylmethyl)acetamide]
74 nM | C[C@@H]1[C@H]2C[C@@H](C[C@H]1Nc1cnn(CC(=O)NC(C(=O)O)c3ccccc3)c(=O)c1Br)C2(C)C (stereo partly drawn) [Synthetic Example 403, ({[5-Bromo-6-oxo-4-{[(1R,2R,3R,5S)-2,6,6-trimethylbicyclo[3.1.1]hept-3-yl]amino}pyridazin-1(6H)-yl]acetyl}amino)(phenyl)acetic Acid]

IC50 | Structure (SMILES)
2.7 nM | CC(NC(=O)Cn1ncc(NC2C3CCCC2CCC3)c(Cl)c1=O)c1ccnnc1 (stereo not shown) [compound 376]
21 nM | C[C@@H]1[C@H]2C[C@@H](C[C@H]1Nc1cnn(CC(=O)NCc3cnccn3)c(=O)c1Br)C2(C)C [compound 14]
5 nM | C[C@@H](NC(=O)Cn1ncc(NC23CC4CC(CC2C4)C3)c(Cl)c1=O)c1ccncc1 [compound 347]
32 nM | C[C@@H]1[C@H]2C[C@@H](C[C@H]1Nc1cnn(CC(=O)NCc3ccccc3N(C)C)c(=O)c1Cl)C2(C)C [compound 247]
34 nM | O=C(Cn1ncc(NC23CC4CC(CC2C4)C3)c(Br)c1=O)NCc1ccnnc1 [compound 345]
58 nM | C[C@@H]1[C@H]2C[C@@H](C[C@H]1Nc1cnn(CC(=O)NCc3ccc(O)cc3)c(=O)c1Br)C2(C)C [compound 205]
84 nM | C[C@@H]1[C@H]2C[C@@H](C[C@H]1Nc1cnn(CC(=O)Nc3nc(-c4ccncc4)cs3)c(=O)c1Cl)C2(C)C [compound 226]
24 nM | C[C@@H]1[C@H]2C[C@@H](C[C@H]1Nc1cnn(CC(=S)NCc3ccncc3)c(=O)c1Br)C2(C)C [Synthetic Example 156, 2-{5-Bromo-6-oxo-4-[(1R,2R,3R,5S)-2,6,6-trimethylbicyclo[3.1.1]hept-3-ylamino]pyridazin-1(6H)-yl}-N-(pyridin-4-ylmethyl)ethanethioamide]
5.3 nM | Cc1cnccc1CNC(=O)Cn1ncc(NC23CC4CC(CC2C4)C3)c(Cl)c1=O [compound 338]
230 nM | CCC(NC(=O)Cn1ncc(N[C@@H]2C[C@@H]3C[C@H]([C@H]2C)C3(C)C)cc1=O)c1ccncc1 (stereo partly shown) [compound 295]
230 nM | C[C@@H]1[C@H]2C[C@@H](C[C@H]1Nc1cnn(CCS(=O)(=O)c3ccccc3)c(=O)c1Cl)C2(C)C [compound 308]
8.2 nM | CCC(NC(=O)Cn1ncc(NC23CC4CC(CC2C4)C3)c(Cl)c1=O)c1ccncc1 (stereo not shown) [compound 337]
36 nM | C[C@@H]1[C@H]2C[C@@H](C[C@H]1Nc1cnn(CC(=O)NC(CCO)c3ccncc3)c(=O)c1Cl)C2(C)C (stereo partly shown) [compound 253]
14 nM | CC(C(=O)NCc1ccncc1)n1ncc(N[C@@H]2C[C@@H]3C[C@H]([C@H]2C)C3(C)C)c(Br)c1=O (stereo partly drawn) [Synthetic Example 46, 2-{5-Bromo-6-oxo-4-[(1R,2R,3R,5S)-2,6,6-trimethylbicyclo[3.1.1]hept-3-ylamino]pyridazin-1(6H)-yl}-N-(pyridin-4-ylmethyl)propanamide]
54 nM | COc1cc(CNC(=O)Cn2ncc(N[C@@H]3C[C@@H]4C[C@H]([C@H]3C)C4(C)C)c(Br)c2=O)on1 [compound 100]
19 nM | C[C@@H]1[C@H]2C[C@@H](C[C@H]1Nc1cnn(CC(=O)NCc3ccno3)c(=O)c1Br)C2(C)C [compound 127]
14 nM | C[C@@H]1[C@H]2C[C@@H](C[C@H]1Nc1cnn(CC(=O)N[C@@H](CO)c3ccccc3)c(=O)c1Cl)C2(C)C [compound 271]
31 nM | C[C@@H]1[C@H]2C[C@@H](C[C@H]1Nc1cnn(CC(=O)NCc3ccnc(C#N)c3)c(=O)c1Br)C2(C)C [compound 219]
14 nM | CCC(NC(=O)Cn1ncc(N[C@@H]2C[C@@H]3C[C@@H](C3(C)C)[C@]2(C)O)c(Cl)c1=O)c1ccncc1 (stereo partly shown) [compound 360]
2.3 nM | CC(NC(=O)Cn1ncc(NC2C3CCCC2CCC3)c(Cl)c1=O)c1ccnc(F)c1 (stereo not shown) [compound 377]
